Measurements from patent US12590966B2, “Method for treating cancer” (THE CHILDREN'S MEDICAL CENTER CORPORATION, priority 2019, dated 2026).

Assays:
Jurkat cells [1] = tested on: Jurkat cells
Description: It was then sought to determine whether GSK3α promotes survival in response to starvation of these amino acids. […] It was then asked whether GSK3α promotes the survival of normal cells in response to essential amino acid starvation, using normal human CD34+ hematopoietic progenitors or CCD841 cells derived from normal human intestinal epithelium (38).

[2] = tested on: CCD841 cells derived from normal human intestinal epithelium; experiment: Survival under essential amino acid starvation; assay type: cell-based
Jurkat cells [3] = experiment: GSK3α body (puncta) formation by confocal immunofluorescence microscopy; assay type: cell-based, human; conditions: for Formation of GSK3α puncta on addition of amino acid: asparagine depleted cell
Procedure: (§1) FIGS. 4A-4D show asparagine starvation induces phase separation of GSK3α into cytoplasmic bodies (or puncta), but not GSK3b. (FIG. 4A) Confocal immunofluorescence microscopy for GSK3α or the nuclear marker DAPI, in Jurkat cells treated with vehicle or asparaginase (100 U/L) for 48 hours. (FIG. 4B) Confocal immunofluorescence microscopy for GSK3β or the nuclear marker DAPI, in Jurkat cells treated with vehicle or asparaginase (100 U/L) for 48 hours. (FIG. 4C) Number of puncta per 50 cells. (FIG. 4D) Formation of GSK3α bodies is selective to asparaginase, and is not induced by other cellular stressors such as other chemotherapeutics or heat shock. ****, p<0.0001. ns (not significant), p>0.05.
FIGS. 6A and 6B show GSK3α bodies function in the protein ubiquitination-proteasomal degradation pathway in response to asparagine starvation. (FIG. 6A) Jurkat T-ALL cells were treated with vehicle, asparaginase, the GSK3α inhibitor BRD0705, or the combination of asparaginase and BRD0705 (combo). Immunofluorescence microscopy was then performed for GSK3α, K48-linked ubiquitin chains (which mark proteins for proteasomal degradation), or the nuclear marker DAPI. Note that GSK3a can still undergo translocation into GSK3a bodies even if its enzymatic activity is inhibited, but the ability of GSK3a bodies to ubiquitinate proteins is completely dependent on the enzymatic activity of GSK3α. (FIG. 6B) Quantification of the immunofluorescence in 50 cells from each condition. Coloc refers to co-localization of both GSK3α and ubiquitin (ub), as determined by yellow color on the merged confocal image. ****, p<0.0001. ns (not significant), p>0.05.
(§2) To test whether GSK3α undergoes spatial sequestration in response to asparaginase, we applied immunofluorescence using paralog-selective antibodies (FIG. S4).

[4] = tested on: normal human CD34+ hematopoietic progenitors; experiment: Survival under essential amino acid starvation; assay type: cell-based
Jurkat T-ALL cells = experiment: Co-localization of K48-linked ubiquitin with GSK3α bodies by immunofluorescence; assay type: cell-based, human; conditions: combination with asparaginase
Procedure: (FIG. 6A) Jurkat T-ALL cells were treated with vehicle, asparaginase, the GSK3α inhibitor BRD0705, or the combination of asparaginase and BRD0705 (combo). Immunofluorescence microscopy was then performed for GSK3α, K48-linked ubiquitin chains (which mark proteins for proteasomal degradation), or the nuclear marker DAPI. […] (FIG. 6B) Quantification of the immunofluorescence in 50 cells from each condition. Coloc refers to co-localization of both GSK3α and ubiquitin (ub), as determined by yellow color on the merged confocal image. ****, p<0.0001. ns (not significant), p>0.05.

Jurkat cells [5] = experiment: GSK3β localization by confocal immunofluorescence microscopy; assay type: cell-based, human; conditions: asparaginase 100 U/L for 48 hours
Procedure: as §1, §2

Jurkat cells [6] = experiment: Proteinase K protection assay of GSK3α; assay type: cell-based, human; conditions: Jurkat cells permeabilized with digitonin, Western blot
Procedure: Jurkat cells were treated with vehicle, asparaginase (×48 hrs) to induce formation of GSK3α bodies, or Wnt3A to induce GSK3 sequestration in membrane-bound multivesicular bodies (Taelman et al., 2010). Cells were permeabilized, and treated with vehicle or proteinase K to digest free cytoplasmic proteins. Triton is a control that dissolves all membranes.
It was then determined whether GSK3α bodies are membraneless using the proteinase K protection assay. Jurkat cells were treated with vehicle or asparaginase to trigger GSK3α body formation. As a positive control, treatment with Wnt3A was included, which triggers sequestration of GSK3 inside membrane-bound multivesicular endosomes (19). Following cytoplasmic membrane permeabilization with digitonin, cells were treated with proteinase K, and GSK3α protein levels were assessed by Western blot analysis. […] These findings indicate that GSK3α bodies are membraneless.

| Molecule | Survival under essential amino acid starvation [2] | Survival under essential amino acid starvation [4] | Formation of GSK3α puncta on addition of amino acid (Jurkat cells [3]) | Accessibility of GSK3α to proteinase K digestion (Jurkat cells [6]) | also measured |
| --- | --- | --- | --- | --- | --- |
| CC[C@@]1(c2ccccc2)C2=C(CC(C)(C)CC2=O)Nc2[nH]ncc21 [BRD0705] | impaired survival | impaired survival | – | – | Viability in leucine-deficient medium (Jurkat cells [1]; leucine-deficient medium): impaired viability; Viability in valine-deficient medium (Jurkat cells [1]; valine-deficient medium): impaired viability; Effect on GSK3α biomolecular condensation in response to asparaginase (Jurkat cells [3]; Jurkat T-ALL cells, combination with asparaginase): did not block the ability of GSK3α to undergo biomolecular condensation; Accumulation of ubiquitin in GSK3α bodies (Jurkat T-ALL cells): did prevent accumulation of ubiquitin in GSK3α bodies |
| CC[C@]1(c2ccccc2)C2=C(CC(C)(C)CC2=O)Nc2[nH]ncc21 [BRD5648] | had no effect | had no effect | – | – | – |
| NC(=O)C[C@H](N)C(=O)O [L-Asn, asparagine] | – | – | inhibits the formation of GSK3α puncta | – | – |
| NC(=O)CC[C@H](N)C(=O)O [L-Glut, glutamine] | – | – | does not | – | – |
| asparaginase | – | – | – | remained accessible to proteinase K digestion | GSK3β localization after treatment (Jurkat cells [5]): remained broadly distributed regardless of asparaginase therapy; GSK3α body formation (condensation into cytoplasmic puncta) induced by treatment (Jurkat cells [3]; Jurkat cells, asparaginase 100 U/L for 48 hours): triggered its condensation into distinct cytoplasmic puncta |
| Wnt3A: positive control that triggers sequestration of GSK3 inside membrane-bound multivesicular endosomes (protein, UniProt P56704 19-352, looked up) Protein Wnt-3a: SYPIWWSLAVGPQYSSLGSQPILCASIPGLVPKQLRFCRNYVEIMPSVAEGIKIGIQECQHQFRGRRWNCTTVHDSLAIFGPVLDKATRESAFVHAIASAGVAFAVTRSCAEGTAAICGCSSRHQGSPGKGWKWGGCSEDIEFGGMVSREFADARENRPDARSAMNRHNNEAGRQAIASHMHLKCKCHGLSGSCEVKTCWWSQPDFRAIGDFLKDKYDSASEMVVEKHRESRGWVETLRPRYTYFKVPTERDLVYYEASPNFCEPNPETGSFGTRDRTCNVSSHGIDGCDLLCCGRGHNARAERRREKCRCVFHWCCYVSCQECTRVYDVHTCK | – | – | – | protected from protease digestion | – |
